Article PMC8880564, “Design, Synthesis, and Biological Evaluation of a Novel VEGFR-2 Inhibitor Based on a 1,2,5-Oxadiazole-2-Oxide Scaffold with MAPK Signaling Pathway Inhibition” (Pharmaceuticals, 2022)

What was measured:
Test in all cases: NCI-60 one-dose SRB screening
Format in all cases: cell-based
UO-31 = details: Homo sapiens, UO-31, Renal Cancer, 10 µM one dose, 48 h, read-out: growth percentage
Description: (§1) The structures of the synthesized compounds 6a–h, 12a–c, 11, 13a–c, and 14a–c were submitted to the National Cancer Institute’s Developmental Therapeutics Program (NCI-DTP), and all of them were selected for preliminary in vitro anticancer activity screening against NCI-59 human cancer cell lines at a concentration of 10 µM, using the sulforhodamine B (SRB) assay to determine the growth percentage and cell viability.
(§2) The in vitro NCI-60 cell line screening assay was conducted at the National Cancer Institute (NCI), Bethesda, USA against 59 cancer cell lines representing 9 types of cancers, as reported earlier. Briefly, the human cancer cell lines were grown in RPMI 1640 medium containing 5% fetal bovine serum and 2 mM L-glutamine and inoculated into 96-well microtiter plates in 100 μL (5000 to 40,000 cells/well). Then, the plates were incubated at 37 °C, 5% CO2, 95% air, and 100% relative humidity for 24 h. After that, two plates of each cell line were fixed in situ with TCA, to represent cell population at time zero (Tz). The tested compounds were dissolved in DMSO at 400-fold and added so that the final concentration became 10 μM. The plates were then incubated for an additional 48 h followed by the addition of cold TCA to terminate the assay in case of adherent cells. Then, the cells were fixed in situ by cold 50% (w/v) TCA (50 μL; final concentration, 10% TCA) and incubated for 1 h at 4 °C. After discarding the supernatant, the plates were washed 5 times with tap water and air dried. Sulforhodamine B (SRB) solution (100 μL) at 0.4% (w/v) in 1% HOAc was added to each well, and plates were incubated for 10 min. at rt. Then, washing with 1% acetic acid was conducted 5 times to remove the unbound dye followed by air drying. After that, 10 mM trizma base was added to solubilize the bound stain, and the absorbance was read on an automated plate reader at a wavelength of 515 nm. On the other hand, the methodology for suspension cells was the same except that 50 μL of 80% TCA (final concentration, 16% TCA) was gently added to terminate the assay by fixing settled cells at the bottom of the wells. Percentage growth inhibition (GI%) was calculated as follows:
(§3) Growth percentage=Ti (test growth in the presence of compound at 10 µM )−Tz (time zero)/C (control growth)−Tz (time zero)×100 for Ti ≥ Tz;
(§4) Growth percentage=Ti (test growth in the presence of compound at 10 µM )−Tz (time zero)/Tz (time zero)×100 for Ti < Tz.
(§5) where values of 100, 40, 0, −40, and −100 mean no GI, 60% GI, no net G, 40% lethality, and all cells are dead, respectively.

MCF7 = details: Homo sapiens, MCF7, Breast Cancer, 10 µM one dose, 48 h, read-out: growth percentage
Description: as §1, §2, §3, §4, §5

SR = details: Homo sapiens, Leukemia, 10 µM one dose, 48 h, read-out: growth percentage
Description: as §1, §2, §3, §4, §5

A498 = details: Homo sapiens, A498, Renal Cancer, 10 µM one dose, 48 h, read-out: growth percentage
Description: as §1, §2, §3, §4, §5

SF-539 = details: Homo sapiens, SF-539, CNS Cancer, 10 µM one dose, 48 h, read-out: growth percentage
Description: as §1, §2, §3, §4, §5

OVCAR-8 = details: Homo sapiens, OVCAR-8, Ovarian Cancer, 10 µM one dose, 48 h, read-out: growth percentage
Description: as §1, §2, §3, §4, §5

786-0 = details: Homo sapiens, 786-0, Renal Cancer, 10 µM one dose, 48 h, read-out: growth percentage
Description: as §1, §2, §3, §4, §5

K-562 = details: Homo sapiens, K562, K-562, Leukemia, 10 µM one dose, 48 h, read-out: growth percentage
Description: as §1, §2, §3, §4, §5

MDA-MB-231/ATCC = details: Homo sapiens, Breast Cancer, 10 µM one dose, 48 h, read-out: growth percentage
Description: as §1, §2, §3, §4, §5

HCT-116 = details: Homo sapiens, HCT-116, Colon Cancer, 10 µM one dose, 48 h, read-out: growth percentage
Description: as §1, §2, §3, §4, §5

A549/ATCC = details: Homo sapiens, Non-Small Cell Lung Cancer, 10 µM one dose, 48 h, read-out: growth percentage
Description: as §1, §2, §3, §4, §5

NCI-H226 = details: Homo sapiens, NCI-H226, Non-Small Cell Lung Cancer, 10 µM one dose, 48 h, read-out: growth percentage
Description: as §1, §2, §3, §4, §5

NCI-H23 = details: Homo sapiens, NCI-H23, Non-Small Cell Lung Cancer, 10 µM one dose, 48 h, read-out: growth percentage
Description: as §1, §2, §3, §4, §5

IGROV1 = details: Homo sapiens, IGROV-1, IGROV1, Ovarian Cancer, 10 µM one dose, 48 h, read-out: growth percentage
Description: as §1, §2, §3, §4, §5

HT29 = details: Homo sapiens, HT-29, HT29, Colon Cancer, 10 µM one dose, 48 h, read-out: growth percentage
Description: as §1, §2, §3, §4, §5

OVCAR-5 = details: Homo sapiens, OVCAR-5, Ovarian Cancer, 10 µM one dose, 48 h, read-out: growth percentage
Description: as §1, §2, §3, §4, §5

RXF 393 = details: Homo sapiens, RXF 393, Renal Cancer, 10 µM one dose, 48 h, read-out: growth percentage
Description: as §1, §2, §3, §4, §5

TK-10 = details: Homo sapiens, TK-10, Renal Cancer, 10 µM one dose, 48 h, read-out: growth percentage
Description: as §1, §2, §3, §4, §5

MALME-3M = details: Homo sapiens, Melanoma, 10 µM one dose, 48 h, read-out: growth percentage
Description: as §1, §2, §3, §4, §5

HS 578T = details: Homo sapiens, Breast Cancer, 10 µM one dose, 48 h, read-out: growth percentage
Description: as §1, §2, §3, §4, §5

T-47D = details: Homo sapiens, T47D, Breast Cancer, 10 µM one dose, 48 h, read-out: growth percentage
Description: as §1, §2, §3, §4, §5

NCI-H460 = details: Homo sapiens, NCI-H460, Non-Small Cell Lung Cancer, 10 µM one dose, 48 h, read-out: growth percentage
Description: as §1, §2, §3, §4, §5

| Compound | activity at 10 µM (UO-31) [%] | activity at 10 µM (MCF7) [%] | activity at 10 µM (SR) [%] | activity at 10 µM (A498) [%] | activity at 10 µM (SF-539) [%] | activity at 10 µM (OVCAR-8) [%] | activity at 10 µM (786-0) [%] | activity at 10 µM (K-562) [%] | activity at 10 µM (MDA-MB-231/ATCC) [%] | activity at 10 µM (HCT-116) [%] | activity at 10 µM (A549/ATCC) [%] | activity at 10 µM (NCI-H226) [%] | activity at 10 µM (NCI-H23) [%] | activity at 10 µM (IGROV1) [%] | activity at 10 µM (HT29) [%] | activity at 10 µM (OVCAR-5) [%] | activity at 10 µM (RXF 393) [%] | activity at 10 µM (TK-10) [%] | activity at 10 µM (MALME-3M) [%] | activity at 10 µM (HS 578T) [%] | also measured |
| --- | --- | --- | --- | --- | --- | --- | --- | --- | --- | --- | --- | --- | --- | --- | --- | --- | --- | --- | --- | --- | --- |
| Cc1nn(-c2ccccc2)c2nc(CCl)[nH]c(=O)c12 [13b] | -86.3 | 16.4 | 39.8 | 4.55 | 36.9 | 112 | 122 | 19.2 | 88.4 | 24.9 | 97.7 | 111 | 98.8 | 96.2 | 106 | 110 | 99.2 | 63.2 | 2.09 | 120 | activity at 10 µM (T-47D): 66%; activity at 10 µM (NCI-H460): 102% |
| Nc1ccc(NCc2c(-c3ccccc3)no[n+]2[O-])cc1 [compound 11, 3-(((4-aminophenyl)amino)methyl)-4-phenyl-1,2,5-oxadiazole 2-oxide] | 98.9 | 85.5 | 104 | 108 | 104 | 131 | 140 | 99.1 | 104 | 98.4 | 95.1 | 114 | 105 | 88.7 | 111 | 116 | 134 | 156 | 100 | 109 | activity at 10 µM (T-47D): 101%; activity at 10 µM (NCI-H460): 101% |
| Cc1nc(Nc2ccc(OCc3c(-c4ccccc4)no[n+]3[O-])cc2)c2cnn(-c3ccccc3)c2n1 [6b, 3-((4-((6-methyl-1-phenyl-1H-pyrazolo[3,4-d]pyrimidin-4-yl)amino)phenoxy)methyl)-4-phenyl-1,2,5-oxadiazole 2-oxide] | 95 | 92.4 | 89.1 | 102 | 102 | 105 | 95.8 | 111 | 106 | 99.2 | 101 | 94.7 | 102 | 101 | 106 | 106 | 111 | 94.8 | 99.3 | 110 | activity at 10 µM (T-47D): 106%; activity at 10 µM (NCI-H460): 111% |
| Cc1nn(-c2ccc(Br)cc2)c2ncnc(Nc3ccc(OCc4c(-c5ccccc5)no[n+]4[O-])cc3)c12 [6g, 3-((4-((1-(4-bromophenyl)-3-methyl-1H-pyrazolo[3,4-d]pyrimidin-4-yl)amino)phenoxy)methyl)-4-phenyl-1,2,5-oxadiazole 2-oxide] | 81.5 | 89 | 121 | 106 | 90.4 | 93.9 | 122 | 103 | 84.9 | 90.7 | 97.3 | 89.9 | 95 | 88.2 | 101 | 99.3 | 131 | 123 | 91.6 | 93.4 | activity at 10 µM (T-47D): 98.5%; activity at 10 µM (NCI-H460): 100% |
| Cc1nn(-c2ccc(Br)cc2)c2nc(CNc3ccc(NCc4c(-c5ccccc5)no[n+]4[O-])cc3)[nH]c(=O)c12 [14c, 3-(((4-(((1-(4-bromophenyl)-3-methyl-4-oxo-4,5-dihydro-1H-pyrazolo[3,4-d]pyrimidin-6-yl)methyl)amino)phenyl)amino)methyl)-4-phenyl-1,2,5-oxadiazole 2-oxide] | 83.4 | 88.1 | 95.2 | 104 | 102 | 112 | 119 | 111 | 96.5 | 93.8 | 97.4 | 109 | 103 | 85.6 | 110 | 110 | 117 | 132 | 92.5 | 108 | activity at 10 µM (T-47D): 103%; activity at 10 µM (NCI-H460): 107% |
| Cc1nn(-c2ccccc2)c2nc(C(F)(F)F)nc(Nc3ccc(NCc4c(-c5ccccc5)no[n+]4[O-])cc3)c12 [12a, 3-(((4-((3-methyl-1-phenyl-6-(trifluoromethyl)-1H-pyrazolo[3,4-d]pyrimidin-4-yl)amino)phenyl)amino)methyl)-4-phenyl-1,2,5-oxadiazole 2-oxide] | 57.5 | 58.5 | 58.7 | 94.4 | 78.1 | 89.7 | 92.4 | 39.8 | 84.4 | 41.1 | 76.6 | 85.6 | 96.7 | 77.9 | 61.5 | 93.7 | 86.8 | 94.4 | 91 | 77.9 | activity at 10 µM (T-47D): 80.5%; activity at 10 µM (NCI-H460): 53% |
